Values joined by “and” are separate entries in the source; they are usually repeats but may differ in a detail not shown here. Equal values may be shown once.
Test system: histone modifications in MCF-7 cells
Experiment: Histone modification analysis by bottom-up LC-MS/MS
Type: cell-based
Conditions: Replicates 1-3
Source text: In this approach. […] Histones are then extracted from cell pellets and chemically derivatized with propionic anhydride, digested with trypsin, subjected to a second round of propionylation, and analyzed by LC-MS/MS. Measuring the relative intensity of modified versus unmodified forms of individual histone peptides enables simultaneous monitoring of multiple potential biomarkers of MYST inhibition. To minimize false positives, we focused on abundant and reproducible modifications (average stoichiometry of greater than 1% across triplicate samples, standard deviation less than or equal to the average measurement). To account for potential histone modification crosstalk, changes in both acetylated and methylated peptides were evaluated. 38 modified peptides passed this reproducible detection threshold including several established KAT biomarkers[41] including H3K9Ac (KAT2A/B), H3K18Ac (KAT3A/B), H3K14Ac (KAT7), H3K23Ac (KAT6A/B), H4K16Ac (KAT8), and H2A.ZK4/K7Ac (KAT5; Fig. 4B).
Histone modification analysis
MCF-7 cells were cultured at 37 °C under 5% CO2 in EMEM (Quality Biological, 112-016-101) with 0.01 mg/mL human recombinant insulin (Sigma Aldrich, 91077C), 2 mM L-glutamine (Quality Biological, 118- […]
human recombinant insulin.
1119, WM-3835). Following 24 h inhibitor treatment, cells were washed with ice-cold 1× PBS and scraped in 150 µL of Nuclear Isolation Buffer (NIB) containing 0.1% NP-40 for histone extraction using a modified protocol from the Garcia laboratory. 9 Briefly, cell suspensions were incubated on ice for 5 minutes, and […]
nuclei were pelleted by centrifugation (600 rcf, 4°C, 5 min). Pelleted nuclei were washed twice with 150 μL of detergent-free NIB buffer, followed by centrifugation (600 rcf, 4°C, 5 min) to remove all detergent.
Nuclei were then resuspended in 400 μL of 0.4 N H₂SO₄ and rotated at 4°C overnight for acid extraction of histones. The following day, samples were centrifuged (11,000 rcf, 4°C, 10 min) and the histone-containing supernatant was transferred to a fresh tube. Trichloroacetic acid (100% TCA) was added to achieve a final concentration of 20% (v/v), tubes were inverted once to mix, and histone precipitation was performed on ice for at least 3 hours or overnight at 4°C. Precipitated histones were collected by centrifugation (11,000 rcf, 4°C, 10 min) and the supernatant carefully removed, leaving a visible film of histones on the tube wall or bottom. Histone pellets were subjected to sequential washes with 1 mL of ice-cold acidified acetone (0.1% 12 N HCl) followed by 1 mL of 100% ice-cold acetone, with centrifugation (11,000 rcf, 4°C, 5 min) after each wash. Samples were air-dried at room temperature, resuspended in 40 µL of ddH₂O, and protein […]
analysis, 1-2 µg of purified histones were loaded per lane and processed according to the general immunoblotting protocol described in General Materials and Methods.
Analysis of histone modifications by LC-MS/MS
Preparation of histone samples for LC-MS/MS was performed analogously to the procedure for immunoblotting above, with the following modifications. MCF7 cells (4.2 × 106) were seeded in 15 cm dishes and treated with PF-9363 or vehicle. Experiments were performed in triplicate. Following treatment and PBS washing, cells were scraped and collected in 15 mL falcon tubes, pelleted (500 rcf, 4°C, 5 min), resuspended in 1 mL cold PBS, transferred to microcentrifuge tubes, and pelleted again before flash-freezing in liquid nitrogen for storage at -80°C. For extraction, cell pellets (~100 μL) were resuspended in NIB buffer at a 1:10 ratio, and cells were lysed with NIB buffer containing 0.2% NP-40 for 8 minutes on ice. Nuclei were pelleted at 1,000 rcf for 8 minutes and washed three times with 500 μL detergent-free NIB buffer. Histones were extracted using 800 μL of 0.2 M H₂SO₄, and after centrifugation (3,400 rcf, 4°C, 10

`COc1cccc(OC)c1S(=O)(=O)Nc1noc2cc(Cn3cccn3)cc(OC)c12` [PF-9363] was tested, and the “Ratio, H2A1_4_11 unmod” value (PF-9363 1) was 0.8988 and 0.8885 and 0.9043, the “Ratio, H2A1_36_42 unmod” value (PF-9363 1) was 0.9987 (2×) and 0.999 and the “Ratio, H2A3_36_42 unmod” value (PF-9363 1) was 1. The “Ratio, H2AJ_4_11 K5acK9ac” value (PF-9363 1) was 0.8841 and 0.8218 and 0.8897, the “Ratio, H2AV_1_19 K4ac” value (PF-9363 1) was 0.04613 and 0.03379 and 0.05235 and the “Ratio, H2AV_1_19 unmod” value (PF-9363 1) was 0.7904 and 0.9003 and 0.7876. The “Ratio, H2AX_4_11 unmod” value (PF-9363 1) was 0.3103 and 0.2578 and 0.2996, the “Ratio, H2AX_36_42 unmod” value (PF-9363 1) was 1 and the “Ratio, H2AZ_1_19 K11ac” value (PF-9363 1) was 0.007104 and 0.02367 and 0.02119. For the same compound, the “Ratio, H2AZ_1_19 unmod” value (PF-9363 1) was 0.8748 and 0.8677 and 0.8766, the “Ratio, H3_73_83 K79me1” value (PF-9363 1) was 0.08571 and 0.09293 and 0.08865 and the “Ratio, H3_73_83 K79me2” value (PF-9363 1) was 0.07582 and 0.06553 and 0.05074. The “Ratio, H3_73_83 unmod” value (PF-9363 1) was 0.8373 and 0.84 and 0.8592, the “Ratio, H4_4_17 K12acK16ac” value (PF-9363 1) was 0.009843 and 0.01149 and 0.01038 and the “Ratio, H4_4_17 unmod” value (PF-9363 1) was 0.6943 and 0.6691 and 0.6837. The “Ratio, H4_20_23 K20me1” value (PF-9363 1) was 0.04112 and 0.02779 and 0.03237, the “Ratio, H4_20_23 unmod” value (PF-9363 1) was 0.02967 and 0.03053 and 0.03337 and the “Ratio, H2A1_1_11 K5ac” value (PF-9363 10) was 0.7349 and 0.6528 and 0.8541. For the same compound, the “Ratio, H2A1_4_11 K5ac” value (PF-9363 10) was 0.05941 and 0.05561 and 0.05439, the “Ratio, H2A1_4_11 K9ac” value (PF-9363 10) was 0.0376 and 0.02679 and 0.04578 and the “Ratio, H2A1_4_11 unmod” value (PF-9363 10) was 0.8844 and 0.9105 and 0.8938. For the same compound, the “Ratio, H2A1_36_42 unmod” value (PF-9363 10) was 0.9994 and 0.9989 and 0.9987, the “Ratio, H2A3_36_42 unmod” value (PF-9363 10) was 1 and the “Ratio, H2AJ_4_11 K5acK9ac” value (PF-9363 10) was 0.87 and 0.9304 and 0.8571. For the same compound, the “Ratio, H2AV_1_19 K4ac” value (PF-9363 10) was 0.03545 and 0 and 0.04516, the “Ratio, H2AV_1_19 unmod” value (PF-9363 10) was 0.7519 and 0 and 0.8693 and the “Ratio, H2AX_4_11 unmod” value (PF-9363 10) was 0.3078 and 0.3089 and 0.315. The “Ratio, H2AX_36_42 unmod” value (PF-9363 10) was 0.9999 and 1 (2×), the “Ratio, H2AZ_1_19 K11ac” value (PF-9363 10) was 0.002627 and 0 and 0.03573 and the “Ratio, H2AZ_1_19 unmod” value (PF-9363 10) was 0.8481 and 0 and 0.8795. The “Ratio, H3_73_83 K79me1” value (PF-9363 10) was 0.0968 and 0.09055 and 0.1061, the “Ratio, H3_73_83 K79me2” value (PF-9363 10) was 0.04989 and 0 and 0.05862 and the “Ratio, H3_73_83 unmod” value (PF-9363 10) was 0.8517 and 0.9094 and 0.8343. For the same compound, the “Ratio, H4_4_17 K12acK16ac” value (PF-9363 10) was 0.004929 and 0.3101 and 0.006064, the “Ratio, H4_4_17 unmod” value (PF-9363 10) was 0.8097 and 0 and 0.7957 and the “Ratio, H4_20_23 K20me1” value (PF-9363 10) was 0.03215 and 0 and 0.02863. The “Ratio, H4_20_23 unmod” value (PF-9363 10) was 0.01905 and 0.02691 and 0.02102, the “Ratio, H2A1_1_11 K5ac” value (PF-9363 30) was 0.8425 and 0.9367 and 0.7907 and the “Ratio, H2A1_4_11 K5ac” value (PF-9363 30) was 0.04965 and 0.0448 and 0.04948. The “Ratio, H2A1_4_11 K9ac” value (PF-9363 30) was 0.02646 and 0.04262 and 0.03503, the “Ratio, H2A1_4_11 unmod” value (PF-9363 30) was 0.9191 and 0.9063 and 0.9088 and the “Ratio, H2A1_36_42 unmod” value (PF-9363 30) was 0.9989 and 0.9987 and 0.9988. The “Ratio, H2A3_36_42 unmod” value (PF-9363 30) was 1, the “Ratio, H2AJ_4_11 K5acK9ac” value (PF-9363 30) was 0.9299 and 0.8746 and 0.8721 and the “Ratio, H2AV_1_19 K4ac” value (PF-9363 30) was 0.04726 and 0.04134 and 0.0354. The “Ratio, H2AV_1_19 unmod” value (PF-9363 30) was 0.8732 and 0.735 and 0.7339, the “Ratio, H2AX_4_11 unmod” value (PF-9363 30) was 0.3537 and 0.3214 and 0.3151 and the “Ratio, H2AX_36_42 unmod” value (PF-9363 30) was 1. The “Ratio, H2AZ_1_19 K11ac” value (PF-9363 30) was 0 and 0.03845 and 0.003881, the “Ratio, H2AZ_1_19 unmod” value (PF-9363 30) was 1 and 0.8991 and 0.9454 and the “Ratio, H3_73_83 K79me1” value (PF-9363 30) was 0.07412 and 0.08491 and 0.08741. For the same compound, the “Ratio, H3_73_83 K79me2” value (PF-9363 30) was 0.05912 and 0.06141 and 0.04678, the “Ratio, H3_73_83 unmod” value (PF-9363 30) was 0.865 and 0.8523 and 0.8643 and the “Ratio, H4_4_17 K12acK16ac” value (PF-9363 30) was 0.3308 and 0.002262 and 0.2125. For the same compound, the “Ratio, H4_4_17 unmod” value (PF-9363 30) was 0.05921 and 0.8851 and 0.358, the “Ratio, H4_20_23 K20me1” value (PF-9363 30) was 0 and 0.03437 and 0.03685 and the “Ratio, H4_20_23 unmod” value (PF-9363 30) was 0.02728 and 0.02218 and 0.01429.

From paper doi:10.1101/2025.04.25.650653, “Hierarchical small molecule inhibition of MYST acetyltransferases” (bioRxiv, 2025)
